This data set can be described thus: Properties and self-adherence of PEA 4-Phe-4/EAC-2 mixture films, dry and after soaking in water. Conditions: for Self-adherence: folded film in water 24 hours. Details: key to Self-adherence: (—) means: no self-adherence observed. The class given is physicochemical. An excerpt:
At the first stage, this Example addresses the question of whether invention cross-linking agents can be used as plasticizers without causing the composition to undesirably adhere to the surface of other materials (for example, steel, and other medical device surfaces).

The source of these data is US20090022772A1, “BIOABSORBABLE ELASTOMERIC ARTERIAL SUPPORT DEVICE AND METHODS OF USE” (MediVas, LLC, priority 2007, published 2009).

Molecules are shown by their SMILES.

On to `C=C(C)C(=O)NC(Cc1ccccc1)C(=O)OCCCCCCOC(=O)C(Cc1ccccc1)NC(=O)C(=C)C` [Phe-6-MA, dimethacrylate of bis(L-Phe)-1,6-hexanediol diester], for which the Self-adherence result (PEA 4-Phe-4/EAC-2 40/60 w/w) is on record as “—”, the Self-adherence result (PEA 4-Phe-4/EAC-2 60/40 w/w) is “—” and the Self-adherence result (PEA 4-Phe-4/EAC-2 80/20 w/w) is “—”. The “Film properties, Dry” value is, setting by setting: (PEA 4-Phe-4/EAC-2 60/40 w/w) “Hard”; (PEA 4-Phe-4/EAC-2 80/20 w/w) “Hard”. The “Film properties, Wet” value (PEA 4-Phe-4/EAC-2 60/40 w/w, pre-soaked in water at room temperature for 24 hours) is listed as “Elastic”.
